The values below come from US12421225B2, “Heteroaromatic amide derivative and medicament containing the same” (KAKEN PHARMACEUTICAL CO., LTD., priority 2018, dated 2025).

The assay has as its target human Nav1.7 (Homo sapiens (Human), UniProt Q15858). Description: Human Nav1.7 inhibitory activity evaluation (automated patch clamp QPatch16X, HEK293A cells stably expressing human Nav1.7 and human Navβ1). As to conditions: human Nav1.7, automated patch clamp. In kind it is cell-based. How it is done:
Test Example 1: Human Nav1.7 Inhibitory Activity Evaluation
A cell line in which human Nav1.7 and human Navβ1 subunits were stably expressed in HEK293A cells was used. Dulbecco's Modified Eagle Medium (DMEM) supplemeted with 10% fetal bovine serum, 600 μg/ml geneticin, and 2 μg/ml blasticidin S were used as culture medium under the conditions of 37° C. and 5% CO2 in T175 flasks to carry out culturing. When 60-80% confluence was reached, the cells were detached and a cell suspension of about 0.5-5.0×10^6 cells/mL was prepared. The amount of current through human Nav1.7 was recorded using a fully automatic patch clamp device QPatch16X (Sophion Biosciences) at room temperature. As the extracellular solution, the solution of 145 mM NaCl, 4 mM KCl, 1 mM MgCl2, 2 mM CaCl2, 10 mM Glucose, 10 mM 4-(2-hydroxyethyl)-1-piperazine ethanesulfonic acid (HEPES) at pH 7.4 was used. As the intracellular solution, the solution of 135 mM CsF, ⅕ mM glycol ether diaminetetraacetic acid (EGTA)/CsOH, 10 mM HEPES, 10 mM NaCl at pH 7.3 was used. The test compounds were dissolved in dimethyl sulfoxide (DMSO) and diluted with the extracellular solution to attain the DMSO concentration of 0.1% at the time of assay.
The current response was obtained at a sampling frequency of 25 kHz, and noise was removed with a 3 kHz low-pass filter. The holding potential was −100 mV. Correction of the leakage current was carried out by applying a step pulse of −120 mV before the test pulse. In order to investigate inhibitory action of the test compound, the following test pulse was given: Namely, after depolarizing pulse of −10 mV was applied for 50 milliseconds, it was fixed at −120 mV for 500 milliseconds; a potential at which about 30-40% of the channel was inactivated was maintained for 15 seconds, then fixed again at −120 mV for 100 milliseconds, and finally a −10 mV depolarization pulse was given for 50 milliseconds. Test pulses were given before and after the test compound addition.
The inhibitory activity of the test compound was determined based on the amount of inward current generated by the second depolarization pulse, and the 50% inhibitory concentration (IC50) was calculated from the concentration-response curve.
On the technique in general: In patch-clamp work, channel activity is measured electrically.

pIC50: −log10 of the molar value. A value given as a limit tells only on which side of the number the result lay.

Chain of human Nav1.7 (Q15858 whole entry): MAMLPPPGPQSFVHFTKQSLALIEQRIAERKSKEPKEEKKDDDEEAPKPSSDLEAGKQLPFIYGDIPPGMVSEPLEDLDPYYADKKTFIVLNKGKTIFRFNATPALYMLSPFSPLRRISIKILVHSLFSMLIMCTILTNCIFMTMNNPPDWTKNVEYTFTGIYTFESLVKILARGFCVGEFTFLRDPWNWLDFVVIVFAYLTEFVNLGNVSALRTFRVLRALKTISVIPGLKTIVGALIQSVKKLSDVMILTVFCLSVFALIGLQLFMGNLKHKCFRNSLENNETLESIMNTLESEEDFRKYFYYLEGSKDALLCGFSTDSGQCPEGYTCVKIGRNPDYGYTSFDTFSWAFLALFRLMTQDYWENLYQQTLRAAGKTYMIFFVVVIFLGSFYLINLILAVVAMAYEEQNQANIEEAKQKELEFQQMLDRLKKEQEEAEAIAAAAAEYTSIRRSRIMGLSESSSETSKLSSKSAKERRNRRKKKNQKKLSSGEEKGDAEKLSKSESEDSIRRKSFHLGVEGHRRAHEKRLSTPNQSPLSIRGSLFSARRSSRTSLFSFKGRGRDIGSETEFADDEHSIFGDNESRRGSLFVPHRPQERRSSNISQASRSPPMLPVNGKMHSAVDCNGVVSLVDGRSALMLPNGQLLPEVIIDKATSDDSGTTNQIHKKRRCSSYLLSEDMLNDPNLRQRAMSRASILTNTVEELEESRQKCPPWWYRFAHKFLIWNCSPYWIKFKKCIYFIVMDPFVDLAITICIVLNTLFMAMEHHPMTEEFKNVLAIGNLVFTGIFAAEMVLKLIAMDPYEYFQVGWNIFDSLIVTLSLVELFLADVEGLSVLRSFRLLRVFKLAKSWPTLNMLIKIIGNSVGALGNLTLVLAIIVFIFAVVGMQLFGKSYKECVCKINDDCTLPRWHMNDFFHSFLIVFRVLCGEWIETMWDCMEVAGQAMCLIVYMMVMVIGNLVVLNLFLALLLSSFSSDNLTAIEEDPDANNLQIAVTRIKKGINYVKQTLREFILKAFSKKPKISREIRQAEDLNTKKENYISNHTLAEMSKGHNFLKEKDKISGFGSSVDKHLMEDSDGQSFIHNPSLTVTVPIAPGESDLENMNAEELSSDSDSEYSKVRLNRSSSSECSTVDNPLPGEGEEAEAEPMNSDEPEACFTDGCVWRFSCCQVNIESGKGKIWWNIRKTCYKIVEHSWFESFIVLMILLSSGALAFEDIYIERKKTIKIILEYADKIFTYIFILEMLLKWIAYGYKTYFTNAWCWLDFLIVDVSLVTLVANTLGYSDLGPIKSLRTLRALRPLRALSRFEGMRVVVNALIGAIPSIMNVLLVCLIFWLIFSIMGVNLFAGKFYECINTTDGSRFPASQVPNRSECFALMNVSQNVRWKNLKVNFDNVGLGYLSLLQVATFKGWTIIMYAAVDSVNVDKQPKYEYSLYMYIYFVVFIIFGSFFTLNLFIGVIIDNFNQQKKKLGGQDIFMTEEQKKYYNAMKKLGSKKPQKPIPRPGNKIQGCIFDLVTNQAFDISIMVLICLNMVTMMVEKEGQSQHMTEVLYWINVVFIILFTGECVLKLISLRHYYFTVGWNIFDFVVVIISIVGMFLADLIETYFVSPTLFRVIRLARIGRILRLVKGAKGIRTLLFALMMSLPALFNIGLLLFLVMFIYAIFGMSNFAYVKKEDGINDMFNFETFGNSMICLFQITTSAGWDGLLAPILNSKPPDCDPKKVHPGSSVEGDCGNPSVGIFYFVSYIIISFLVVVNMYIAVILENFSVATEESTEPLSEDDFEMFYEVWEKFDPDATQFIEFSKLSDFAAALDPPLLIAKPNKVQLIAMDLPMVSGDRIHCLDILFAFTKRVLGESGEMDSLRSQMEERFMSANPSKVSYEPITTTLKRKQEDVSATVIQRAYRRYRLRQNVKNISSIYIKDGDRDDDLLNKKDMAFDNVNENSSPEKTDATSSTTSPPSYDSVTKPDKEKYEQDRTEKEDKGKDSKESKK
Chain of human Nav1.7 (Q07699 19-218 partner): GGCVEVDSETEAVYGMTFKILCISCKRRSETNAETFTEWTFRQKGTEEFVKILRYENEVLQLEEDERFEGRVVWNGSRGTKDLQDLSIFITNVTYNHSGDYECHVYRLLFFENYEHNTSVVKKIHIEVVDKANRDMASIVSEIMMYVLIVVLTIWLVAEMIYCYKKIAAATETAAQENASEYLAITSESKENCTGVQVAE

`N#Cc1ccc2c(c1)C[C@@H](NC(=O)c1cc3n(n1)CCC1(CCC1)O3)CO2` [Example 180] gave a pIC50 above 5.00. To `O=C(N[C@H]1COc2ccc(COCC(F)(F)F)cc2C1)c1cc2n(n1)CC(C(F)(F)F)O2` (some centres unmarked) [Example 183] belongs above 5.00; to `O=C(N[C@H]1COc2ccc(CC(F)(F)F)cc2C1)c1cc2n(n1)CC(COCC(F)(F)F)O2` (some centres unmarked) [Example 191], above 6.00; to `Cc1cnc(-c2ccc3c(c2)C[C@@H](NC(=O)c2cc4n(n2)CC(COCC(F)(F)F)O4)CO3)cn1` (some centres unmarked) [Example 193], above 5.00. To `O=C(N[C@H]1COc2ccc(CC(F)F)cc2C1)c1cc2n(n1)CC(CCOC(F)(F)F)O2` (some centres unmarked) [Example 210] belongs above 6.00; to `O=C(N[C@H]1COc2ccc(CCOC(F)F)cc2C1)c1cc2n(n1)CC(CCOC(F)F)O2` (some centres unmarked) [Example 216], above 6.00. With `O=C(N[C@H]1COc2ccc(C(F)(F)F)cc2C1)c1cc2n(n1)CC(CCN1CC(F)(F)C1)O2` (some centres unmarked) [Example 235], the pIC50 was above 5.00.

With `O=C(N[C@H]1COc2ccc(CCOC(F)F)cc2C1)c1cc2n(n1)CC(CCN1CC(F)(F)C1)O2` (some centres unmarked) [Example 237], the pIC50 was above 6.00. In the case of `O=C(N[C@H]1COc2ccc(CCOC(F)(F)F)cc2C1)c1cc2n(n1)CC(CCN1CC(F)(F)C1)O2` (some centres unmarked) [Example 239] it was above 6.00; in that of `O=C(N[C@H]1COc2ccc(C(F)(F)F)cc2C1)c1nn2c(c1-c1ccn[nH]1)OCC2` [Example 249], above 5.00. In the case of `CC1(C)Cn2nc(C(=O)N[C@H]3COc4ccc(C(F)(F)F)cc4C3)c(-c3ccn[nH]3)c2O1` [Example 250] it was above 5.00.

As to `O=C(N[C@H]1COc2ccc(C(F)(F)F)cc2C1)c1nn2c(c1-c1ccn[nH]1)COCC2` [Example 259, (R)-3-(1H-pyrazol-5-yl)-N-(6-(trifluoromethyl)chroman-3-yl)-6,7-dihydro-4H-pyrazolo[5,1-c][1,4]oxazine-2-carboxamide], the pIC50 is above 6.00.

With `O=C(NC1COc2ccc(C(F)(F)F)cc2C1)c1cc2n(n1)CCN(CCC1CC1)C2` (centres unmarked) [Example 264], the pIC50 was above 6.00.

For `N#Cc1ccc2c(c1)C[C@@H](NC(=O)c1cc3n(n1)CCN(CCc1ccc(F)cc1)C3)CO2` [Example 269], the pIC50 is above 6.00. In the case of `CC(C)CN1CCn2nc(C(=O)N[C@H]3COc4ccc(C#N)cc4C3)cc2C1` [Example 270] it was above 5.00; in that of `N#Cc1ccc2c(c1)C[C@@H](NC(=O)c1cc3n(n1)CCN(C1CCCC1)C3)CO2` [Example 271], above 5.00.

`O=C(N[C@H]1COc2ccc(Cl)cc2C1)c1cc2n(n1)CCN(CCOc1ccccn1)C2` [Example 274]: the pIC50 is above 5.00. `COc1cc(C2(N3CCn4nc(C(=O)N[C@H]5COc6ccc(C#N)cc6C5)cc4C3)CC2)ccn1` [Example 286] gave a pIC50 above 5.00. In the case of `C=Cc1cccc2c1CC(NC(=O)c1cn3c(n1)CCC(C(F)(F)F)C3)CO2` (centres unmarked) [Example 293] it was above 5.00; in that of `CCOCc1cccc2c1CC(NC(=O)c1cn3c(n1)CCC(C(F)(F)F)C3)CO2` (centres unmarked) [Example 296], above 5.00. To `N#CCc1cccc2c1CC(NC(=O)c1cn3c(n1)CCC(C(F)(F)F)C3)CO2` (centres unmarked) [Example 297] belongs above 5.00; to `O=C(N[C@H]1COc2ccccc2C1)c1nc2n(c1-c1ccccc1)CC(C(F)(F)F)CC2` (some centres unmarked) [Example 299], above 6.00.

On to `N#Cc1c(C(=O)N[C@H]2COc3ccccc3C2)nc2n1CC(C(F)(F)F)CC2` (some centres unmarked) [Example 300], for which the pIC50 is above 5.00.

As for `O=C(N[C@H]1COc2ccccc2C1)c1nc2n(c1CCCO)CC(C(F)(F)F)CC2` (some centres unmarked) [Example 301], the pIC50 is above 5.00. In the case of `C=Cc1c(C(=O)N[C@H]2COc3ccccc3C2)nc2n1CC(C(F)(F)F)CC2` (some centres unmarked) [Example 302], the pIC50 was above 5.00.

Regarding `O=C(N[C@H]1COc2ccc(CCOC(F)(F)F)cc2C1)c1nc2n(c1-c1ccccn1)CCCC2` [Example 306], the pIC50 was above 6.00.

In turn, `O=C(c1cn2c(n1)CCC(c1cccc(N3CC(O)C3)n1)C2)N1CCC(c2ccccc2)C1` (centres unmarked) [Example 309] gave a pIC50 above 5.00. To `O=C(c1cn2c(n1)CCC(c1cccc(N3CCCC3)n1)C2)N1CCC(c2ccccc2)C1` (centres unmarked) [Example 310] belongs above 5.00; to `O=C(N[C@H]1COc2ccccc2C1)c1cn2c(n1)CCC(c1cccc(C(F)(F)F)n1)C2` (some centres unmarked) [Example 314], above 6.00; to `O=C(c1cn2c(n1)CCC(c1cccnc1C(F)(F)F)C2)N1CCCC1c1ccccc1` (centres unmarked) [Example 315], above 5.00. Molecule `CCC(F)(CC)C1CCc2nc(C(=O)N[C@H]3COc4ccccc4C3)cn2C1` (some centres unmarked) [Example 319] showed a pIC50 above 5.00. Consider `CC(C)(F)CCC1CCc2nc(C(=O)N[C@H]3COc4ccccc4C3)cn2C1` (some centres unmarked) [Example 320], for which the pIC50 is above 5.00. In the case of `CN(C1CCc2nc(C(=O)N[C@H]3COc4ccccc4C3)cn2C1)S(=O)(=O)c1ccccc1` (some centres unmarked) [Example 322] it was above 5.00.

Molecule `CN1Cc2nc(C(=O)NCCc3c[nH]c4ccccc34)cn2CC1c1ccccc1` (centres unmarked) [Example 323] showed a pIC50 above 5.00.

With `CN1Cc2nc(C(=O)N3CCC(F)(c4ccccc4Cl)C3)cn2CC1c1ccccc1` (centres unmarked) [Example 329], the pIC50 was above 6.00. To `CN1Cc2nc(C(=O)N3CC(Oc4cccc(C(F)(F)F)n4)C3)cn2CC1c1ccccc1` (centres unmarked) [Example 330] belongs above 5.00.

`CN1Cc2nc(C(=O)N3CCC(Oc4cccc(C(F)(F)F)n4)C3)cn2CC1c1cccc(OC(F)(F)F)c1` (centres unmarked) [Example 335] showed a pIC50 above 5.00. `O=C(N[C@H]1COc2ccccc2C1)c1nc2n(c1-c1ccccc1)CCN(C(=O)C(F)(F)F)C2` [Example 339]: the pIC50 is above 5.00.

`N#Cc1ccc2c(c1)C[C@@H](NC(=O)c1nc3n(c1-c1cccc(Cl)n1)CCOC3)CO2` [Example 341] gave a pIC50 above 6.00.

Consider `O=C(N[C@H]1COc2ccc(C3CC3)cc2C1)c1nc2n(c1-c1ccccn1)CCOC2` [Example 342], for which the pIC50 was above 6.00. To `O=C(N[C@H]1COc2ccc(C(F)(F)F)cc2C1)c1nc2n(c1-c1cccnc1OCC(F)(F)F)CCOC2` [Example 346] belongs above 5.00; to `O=C(NC1COc2ccccc2C1)c1nn2c(c1-c1ccccc1)CCCC2` (centres unmarked) [Example 347], above 5.00; to `COc1cccc(-c2c(C(=O)N[C@H]3COc4ccc(Cl)cc4C3)nn3c2CCCC3)n1` [Example 348], above 6.00. To `O=C(NC1COc2c(F)cc(F)cc2C1)c1cc2n(n1)CCC(c1ccccc1)O2` (centres unmarked) [Example 354] belongs above 5.00; to `O=C(NC1COc2ccc(Cl)cc2C1)c1cc2n(n1)CCC(c1ccccc1)O2` (centres unmarked) [Example 355], above 6.00; to `O=C(NC1COc2ccc3ncccc3c2C1)c1cc2n(n1)CCC(c1ccccc1F)O2` (centres unmarked) [Example 363], above 5.00.

In turn, `CCOC(C)c1ccc2c(c1)C[C@@H](NC(=O)c1cc3n(n1)CCC(c1ccccc1F)O3)CO2` (some centres unmarked) [Example 365] had a pIC50 above 5.00. To `COc1ncccc1C1CCn2nc(C(=O)N[C@H]3COc4ccc(Cl)cc4C3)cc2O1` (some centres unmarked) [Example 367] belongs above 6.00; to `O=C(N[C@H]1COc2ccc(CN3CCOCC3)cc2C1)c1cc2n(n1)CCC(c1ccccc1F)O2` (some centres unmarked) [Example 368], above 5.00; to `CN(C)CCOCc1ccc2c(c1)C[C@@H](NC(=O)c1cc3n(n1)CCC(c1ccccc1F)O3)CO2` (some centres unmarked) [Example 369], above 5.00. Regarding `CN(C)C(=O)COCc1ccc2c(c1)C[C@@H](NC(=O)c1cc3n(n1)CCC(c1ccccc1F)O3)CO2` (some centres unmarked) [Example 370], the pIC50 was above 5.00. In the case of `COc1ccc(C2CCn3nc(C(=O)N[C@H]4COc5ccc(Cl)cc5C4)cc3O2)cn1` (some centres unmarked) [Example 371] it was above 6.00; in that of `CCOc1ncccc1C1CCn2nc(C(=O)N[C@H]3COc4ccc(C#N)cc4C3)cc2O1` (some centres unmarked) [Example 372], above 6.00.

`O=C(N[C@H]1COc2ccc(-c3ccncc3)cc2C1)c1cc2n(n1)CCC(C(F)(F)F)O2` (some centres unmarked) [Example 376] showed a pIC50 above 5.00. In the case of `COc1ncccc1-c1ccc2c(c1)C[C@@H](NC(=O)c1cc3n(n1)CCC(C(F)(F)F)O3)CO2` (some centres unmarked) [Example 377] it was above 5.00. The molecule `C=C1CCn2nc(C(=O)N[C@H]3COc4ccc(Cl)cc4C3)cc2O1` [Example 379] showed a pIC50 above 6.00. In turn, `O=C(N[C@H]1COc2ccc(-c3cnc(N4CCC4)nc3)cc2C1)c1cc2n(n1)CCC(C(F)(F)F)O2` (some centres unmarked) [Example 380] had a pIC50 above 5.00. In the case of `O=C(N[C@H]1COc2ccc(Cl)cc2C1)c1cc2n(n1)CCC(CF)O2` (some centres unmarked) [Example 381] it was above 5.00. In the case of `N#Cc1ccc2c(c1)C[C@@H](NC(=O)c1cc3n(n1)CCC(Cc1ccc(F)cc1)O3)CO2` (some centres unmarked) [Example 384] it was above 6.00.

Usually pIC50 stands for the IC50 on a negative log10 scale, so that one unit is a factor of ten. Lower therefore signals a large IC50.
